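Method: 48-hour compound exposure of cells in 96-well plates, five concentrations, linear interpolation of endpoints. Here, GI50 denotes the concentration required for 50% inhibition of growth. TGI: concentration producing complete growth inhibition.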

Some test systems named below: M14 melanoma; MALME-3M melanoma; OVCAR-3 ovarian; UO-31 renal; SF-539 CNS; 786-0 renal; ACHN renal; CAKI-1 renal; SK-MEL-2 melanoma; COLO 205 colon.
Common to all, as to experiment: growth of human tumour cells (NCI), 48 h

As for `CCOP(=O)(OCC)C1C(CO)OC(n2ccc(=O)[nH]c2=O)C1O` (stereo unspecified), the TGI in the assay with M14 melanoma, in the assay with MALME-3M melanoma, in the assay on OVCAR-3 ovarian, in the assay on UO-31 renal, in the assay on SF-539 CNS and in the assay on 786-0 renal was above 100 µM in each case. Moreover, the TGI with ACHN renal, in the assay with CAKI-1 renal and in the assay with SK-MEL-2 melanoma was above 100 µM throughout.

Consider `COCOc1ccc(OC)cc1`, for which the TGI in the assay with COLO 205 colon, in the assay on MALME-3M melanoma, in the assay on OVCAR-3 ovarian, in the assay on UO-31 renal, with SF-539 CNS and in the assay with CAKI-1 renal was above 100 µM each time. The compound further came in with a TGI with SK-MEL-2 melanoma above 100 µM.

With `Oc1ccc(-c2nnc3sc(-c4ccc(F)cc4)nn23)cc1`, the GI50 was 16.9 µM in the assay on COLO 205 colon; above 100 µM in the assay on MALME-3M melanoma; 18.6 µM in the assay with OVCAR-3 ovarian; above 100 µM in the assay on UO-31 renal; 36.5 µM in the assay with SF-539 CNS; 24.7 µM with ACHN renal. In addition, the values for the GI50 in the assay on CAKI-1 renal and in the assay with SK-MEL-2 melanoma were 48.8 µM and above 100 µM, respectively. Further, the TGI was 34.1 µM in the assay on COLO 205 colon; above 100 µM with MALME-3M melanoma; above 100 µM in the assay with OVCAR-3 ovarian; above 100 µM in the assay with UO-31 renal; above 100 µM with SF-539 CNS; above 100 µM in the assay with ACHN renal. The TGI in the assay with CAKI-1 renal and with SK-MEL-2 melanoma was above 100 µM in each case.

Consider `COc1cc(/C=C/C(=O)O)ccc1C(=O)O/C=C/c1ccccc1`, for which the TGI in the assay on COLO 205 colon, in the assay with MALME-3M melanoma, in the assay on OVCAR-3 ovarian, with UO-31 renal, with SF-539 CNS and with SK-MEL-2 melanoma was above 100 µM in each case.

On to `CC1(C)C(c2ccccc2)=[N+]([O-])C(C)(C)N1O`, for which the TGI with M14 melanoma, in the assay with COLO 205 colon, with MALME-3M melanoma, in the assay on OVCAR-3 ovarian, in the assay with SF-539 CNS and in the assay with 786-0 renal was above 10 µM in each case. The TGI in the assay with ACHN renal, with CAKI-1 renal and with SK-MEL-2 melanoma was above 10 µM in each case.

For the compound `Cc1cc(-c2nc3c(O)cccc3s2)ccc1N`, the TGI with M14 melanoma is 39.5 µM; with COLO 205 colon, above 100 µM; in the assay on OVCAR-3 ovarian, above 100 µM; in the assay on UO-31 renal, 36.6 µM; in the assay with SF-539 CNS, above 100 µM; in the assay with 786-0 renal, 95.1 µM. The TGI with ACHN renal is 43.4 µM; in the assay with CAKI-1 renal it was 56.1 µM; in the assay on SK-MEL-2 melanoma, 52.9 µM.

As for `CCC[C@H]1C(=O)N=C(N)N1C(=O)OCc1ccccc1`, the TGI in the assay on COLO 205 colon, in the assay with MALME-3M melanoma, with OVCAR-3 ovarian, with UO-31 renal, in the assay with SF-539 CNS and with 786-0 renal was above 100 µM in each case. Moreover, the TGI in the assay with ACHN renal, with CAKI-1 renal and in the assay with SK-MEL-2 melanoma was above 100 µM each time.

For `Cc1ccc(S(=O)(=O)Oc2cc(N)c3c(n2)CCC3)cc1`, the TGI with M14 melanoma, with COLO 205 colon, with OVCAR-3 ovarian, in the assay with UO-31 renal, with SF-539 CNS and in the assay on 786-0 renal was above 100 µM each time. The TGI in the assay on ACHN renal, in the assay with CAKI-1 renal and in the assay on SK-MEL-2 melanoma was above 100 µM each time.

For the compound `COc1cc2c(cc1OC)C1c3ccccc3CCN1CC2` (stereo unspecified), the TGI in the assay with M14 melanoma is above 100 µM; with COLO 205 colon, above 100 µM; in the assay on MALME-3M melanoma it was above 100 µM; in the assay with OVCAR-3 ovarian, above 100 µM; in the assay on SF-539 CNS, 75.1 µM; with 786-0 renal, above 100 µM. The TGI in the assay with ACHN renal, with CAKI-1 renal and in the assay on SK-MEL-2 melanoma was above 100 µM in each case.

With `C=C(Cl)/C(=C\Cl)CCC(Br)C(C)C` (stereo unspecified), the TGI in the assay on M14 melanoma, in the assay on COLO 205 colon, in the assay with OVCAR-3 ovarian, in the assay on UO-31 renal, in the assay with SF-539 CNS and with 786-0 renal was above 100 µM each time. Also, the TGI with ACHN renal, in the assay on CAKI-1 renal and with SK-MEL-2 melanoma was above 100 µM throughout.

As for `COc1ccc(N[C@H](CSc2ccc(C)cc2)c2ccc(F)cc2)cc1`, the TGI with M14 melanoma, with COLO 205 colon, in the assay on OVCAR-3 ovarian, with UO-31 renal, in the assay on SF-539 CNS and in the assay on 786-0 renal was above 100 µM throughout. Besides, the TGI in the assay with ACHN renal, in the assay on CAKI-1 renal and in the assay on SK-MEL-2 melanoma was above 100 µM in each case.

Regarding `CC(=O)OC(C)c1cc2c(s1)C(=O)c1sccc1C2=O` (stereo unspecified), the TGI in the assay with M14 melanoma was found to be 0.389 µM; in the assay with COLO 205 colon it was 3.59 µM; in the assay on MALME-3M melanoma, 0.407 µM; in the assay with OVCAR-3 ovarian it was 8.71 µM; in the assay with UO-31 renal, 3.28 µM; with SF-539 CNS it was 0.689 µM. Besides, the TGI with CAKI-1 renal was 8.23 µM; in the assay with SK-MEL-2 melanoma, 2.41 µM.

Turning to `CCCCn1c2c(n(CCCC)c1=S)-c1c(n(CCCC)c(=S)n1CCCC)S[Se][Se]S2`, the TGI in the assay on M14 melanoma worked out at 31.7 µM; in the assay with COLO 205 colon, 3.87 µM; in the assay with MALME-3M melanoma, 5.09 µM; with OVCAR-3 ovarian it was 7.84 µM; with UO-31 renal, 9.02 µM; in the assay on SF-539 CNS it was 12.5 µM. Further, the TGI in the assay with 786-0 renal was above 43.9 µM; in the assay on ACHN renal, 14.2 µM; with SK-MEL-2 melanoma, above 55.6 µM.

For `COc1cc(C2c3cc4c(cc3OC(NN=C(C)C)C2C)OCO4)cc(OC)c1O` (stereo unspecified), the TGI in the assay on M14 melanoma was above 100 µM; with COLO 205 colon, above 100 µM; with MALME-3M melanoma it was above 100 µM; with OVCAR-3 ovarian, above 100 µM; with UO-31 renal it was above 100 µM; in the assay with SF-539 CNS it was 56.1 µM. Moreover, the TGI in the assay with 786-0 renal was above 100 µM; with CAKI-1 renal, above 100 µM; with SK-MEL-2 melanoma, 55.9 µM.

For the compound `COc1cc(OCc2ccc3oc(=O)c(-c4ccccc4)nc3c2)cc(OC)c1OC`, the TGI in the assay on M14 melanoma, in the assay with COLO 205 colon, in the assay on MALME-3M melanoma, in the assay on OVCAR-3 ovarian, in the assay on UO-31 renal and in the assay with SF-539 CNS was above 100 µM in each case. For the same compound, the TGI with 786-0 renal, in the assay on ACHN renal and with SK-MEL-2 melanoma was above 100 µM throughout.

Values taken from PubChem BioAssay (NCI).
